In PubChem BioAssay (NCI):
“And” between values parts separate entries of the source, which are not always exact repeats. Equal entries are not always repeated.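 Five compound concentrations were applied to cells in 96-well plates for 48 hours; endpoints were derived by simple linear interpolation of the resulting dose-response curve. Here, GI50 denotes the concentration required for 50% inhibition of growth. TGI marks complete inhibition of growth.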

How the values were obtained:
Experiment in all cases: DTP human tumour cell line panel, 48 h
SR leukemia = tested on: SR leukemia
SF-268 CNS = tested on: SF-268 CNS
COLO 205 colon = tested on: COLO 205 colon
CCRF-CEM leukemia = tested on: CCRF-CEM leukemia
RPMI-8226 leukemia = tested on: RPMI-8226 leukemia
SNB-75 CNS = tested on: SNB-75 CNS
HCT-116 colon = tested on: HCT-116 colon
UACC-257 melanoma = tested on: UACC-257 melanoma
UACC-62 melanoma = tested on: UACC-62 melanoma
NCI-H226 lung = tested on: NCI-H226 lung

CCOC(=O)N(O)c1ccc(/C=C/c2ccccc2)cc1
GI50 (SR leukemia): 4.1 µM | TGI (SR leukemia): 28.2 µM | GI50 (SF-268 CNS): 18.2 µM | TGI (SF-268 CNS): > 100 µM | GI50 (COLO 205 colon): 13.2 µM | TGI (COLO 205 colon): 38.5 µM | GI50 (CCRF-CEM leukemia): 9.38 µM | TGI (CCRF-CEM leukemia): > 93.5 µM | GI50 (RPMI-8226 leukemia): 5.08 µM | TGI (RPMI-8226 leukemia): 38.8 µM | GI50 (SNB-75 CNS): 29.3 µM | TGI (SNB-75 CNS): > 100 µM | GI50 (HCT-116 colon): 0.407 µM | TGI (HCT-116 colon): 10.5 µM | GI50 (UACC-257 melanoma): 0.421 µM | TGI (UACC-257 melanoma): 2.49 µM | GI50 (UACC-62 melanoma): 0.47 µM | TGI (UACC-62 melanoma): 3.07 µM | GI50 (NCI-H226 lung): 0.128 µM | TGI (NCI-H226 lung): 0.446 µM

CC(=O)OC1=C(CC(C)(C)C)C(=O)c2ccccc2C1=O
TGI (SR leukemia): 50.7 µM | TGI (SF-268 CNS): 74.9 µM | TGI (COLO 205 colon): 72.5 µM | TGI (CCRF-CEM leukemia): 55.6 µM | TGI (RPMI-8226 leukemia): 39.1 µM | TGI (SNB-75 CNS): > 100 µM | TGI (HCT-116 colon): 75.5 µM | TGI (UACC-257 melanoma): > 100 µM | TGI (UACC-62 melanoma): > 100 µM | TGI (NCI-H226 lung): > 100 µM

O=C1C=CC(=O)c2c(O)c(N(CCCl)CCCl)c(Cl)c(O)c21
TGI (SR leukemia): > 10 µM | TGI (SF-268 CNS): > 8.4 µM | TGI (COLO 205 colon): 5.57 µM | TGI (CCRF-CEM leukemia): > 7.38 µM | TGI (RPMI-8226 leukemia): > 10 µM | TGI (SNB-75 CNS): > 10 µM | TGI (HCT-116 colon): 5.68 µM | TGI (UACC-257 melanoma): 5.23 µM | TGI (UACC-62 melanoma): > 7.71 µM | TGI (NCI-H226 lung): > 10 µM

N=C1C=C(N)C(=O)c2ccccc21
GI50 (SR leukemia): 0.256 µM | TGI (SR leukemia): 0.667 µM | GI50 (SF-268 CNS): 0.199 µM | TGI (SF-268 CNS): 0.451 µM | GI50 (COLO 205 colon): 0.267 µM | TGI (COLO 205 colon): 0.664 µM | GI50 (CCRF-CEM leukemia): 0.308 µM | TGI (CCRF-CEM leukemia): > 100 µM | GI50 (RPMI-8226 leukemia): 0.241 µM | TGI (RPMI-8226 leukemia): 0.669 µM | GI50 (SNB-75 CNS): 0.151 µM | TGI (SNB-75 CNS): 0.293 µM | GI50 (HCT-116 colon): 0.183 µM | TGI (HCT-116 colon): 0.451 µM | GI50 (UACC-257 melanoma): 0.161 µM | TGI (UACC-257 melanoma): 0.306 µM | GI50 (UACC-62 melanoma): 0.181 µM | TGI (UACC-62 melanoma): 0.352 µM | GI50 (NCI-H226 lung): 0.19 µM | TGI (NCI-H226 lung): 0.394 µM

CN1C/C(=C\c2ccc(C(=O)O)cc2)C(=O)/C(=C/c2ccc(C(=O)O)cc2)C1
TGI (SR leukemia): > 100 µM | TGI (SF-268 CNS): > 100 µM | TGI (COLO 205 colon): > 100 µM | TGI (CCRF-CEM leukemia): > 100 µM | TGI (RPMI-8226 leukemia): > 100 µM | TGI (SNB-75 CNS): > 100 µM | TGI (HCT-116 colon): > 100 µM | TGI (UACC-257 melanoma): > 100 µM | TGI (UACC-62 melanoma): > 100 µM | TGI (NCI-H226 lung): > 100 µM

NC1=Nc2ccccc2Sc2ccccc21
TGI (SR leukemia): > 100 µM | TGI (SF-268 CNS): > 100 µM | TGI (COLO 205 colon): > 100 µM | TGI (CCRF-CEM leukemia): > 100 µM | TGI (RPMI-8226 leukemia): > 100 µM | TGI (SNB-75 CNS): 53.2 µM | TGI (HCT-116 colon): > 100 µM | TGI (UACC-257 melanoma): > 100 µM | TGI (UACC-62 melanoma): > 100 µM | TGI (NCI-H226 lung): > 100 µM

O=C(/C=C/c1ccc(Cl)cc1Cl)c1ccc(Cl)cc1Cl
GI50 (SR leukemia): 3.33 µM | TGI (SR leukemia): 14.9 µM | GI50 (SF-268 CNS): > 63.3 µM | TGI (SF-268 CNS): > 100 µM | GI50 (COLO 205 colon): 20.8 µM | TGI (COLO 205 colon): > 65.4 µM | GI50 (CCRF-CEM leukemia): 9.14 µM | TGI (CCRF-CEM leukemia): 32.8 µM | GI50 (RPMI-8226 leukemia): 4.22 µM | TGI (RPMI-8226 leukemia): 17.8 µM | GI50 (SNB-75 CNS): 40.5 µM | TGI (SNB-75 CNS): > 100 µM | GI50 (HCT-116 colon): 5.82 µM | TGI (HCT-116 colon): 17.1 µM | GI50 (UACC-257 melanoma): 21.7 µM | TGI (UACC-257 melanoma): 55.3 µM | GI50 (UACC-62 melanoma): 1.52 µM | TGI (UACC-62 melanoma): 12.1 µM | GI50 (NCI-H226 lung): 19.9 µM | TGI (NCI-H226 lung): 40.8 µM

COC(=O)Nc1nc2ccc(C(=O)c3cccs3)cc2[nH]1
GI50 (SR leukemia): 0.019 µM and 0.0327 µM | TGI (SR leukemia): 5.98 µM | GI50 (SF-268 CNS): 0.452 µM | TGI (SF-268 CNS): 60.7 µM and > 100 µM | TGI (COLO 205 colon): 2.09 µM | GI50 (CCRF-CEM leukemia): 0.124 µM | TGI (CCRF-CEM leukemia): 19.8 µM and > 100 µM | GI50 (RPMI-8226 leukemia): 0.407 µM | GI50 (SNB-75 CNS): < 0.0192 µM and 0.171 µM | TGI (SNB-75 CNS): > 100 µM | GI50 (HCT-116 colon): 0.0732 µM | TGI (HCT-116 colon): 16.5 µM and 14.2 µM | GI50 (UACC-257 melanoma): > 100 µM | TGI (UACC-257 melanoma): > 100 µM | GI50 (UACC-62 melanoma): 0.189 µM | TGI (UACC-62 melanoma): 65.4 µM and > 100 µM | GI50 (NCI-H226 lung): 0.275 µM | TGI (NCI-H226 lung): 1.26 µM and 2.54 µM

COC(=N)CCCl
TGI (SR leukemia): > 100 µM | TGI (SF-268 CNS): > 100 µM | TGI (COLO 205 colon): > 100 µM | TGI (CCRF-CEM leukemia): > 100 µM | TGI (RPMI-8226 leukemia): > 100 µM | TGI (SNB-75 CNS): > 100 µM | TGI (HCT-116 colon): > 100 µM | TGI (UACC-257 melanoma): > 100 µM | TGI (UACC-62 melanoma): > 100 µM | TGI (NCI-H226 lung): > 100 µM

Cc1c2ccccc2c(C)n2c1nc1cc(Cl)c(Cl)cc12
GI50 (SR leukemia): 12.9 µM | TGI (SR leukemia): 44.7 µM | GI50 (SF-268 CNS): > 100 µM | TGI (SF-268 CNS): > 100 µM | GI50 (COLO 205 colon): 19.2 µM | TGI (COLO 205 colon): > 100 µM | GI50 (CCRF-CEM leukemia): 43.9 µM | TGI (CCRF-CEM leukemia): > 100 µM | GI50 (RPMI-8226 leukemia): 18.4 µM | TGI (RPMI-8226 leukemia): > 100 µM | GI50 (SNB-75 CNS): 36.9 µM | TGI (SNB-75 CNS): > 100 µM | GI50 (HCT-116 colon): 18.6 µM | TGI (HCT-116 colon): > 100 µM | GI50 (UACC-257 melanoma): > 100 µM | TGI (UACC-257 melanoma): > 100 µM | GI50 (UACC-62 melanoma): 45.2 µM | TGI (UACC-62 melanoma): > 100 µM | GI50 (NCI-H226 lung): > 100 µM | TGI (NCI-H226 lung): > 100 µM
